According to patent publication US8501803B2, “Garcinia derivative, its preparing method and medicinal use” (China Pharmaceutical University, priority 2010, dated 2013):

Columns and labels:
[1] = tested on: BGC-823 cells (human gastric carcinoma cells); experiment: MTT antiproliferative test on BGC-823 cells; assay type: cell-based; details: 96 h, 4 days culture, BGC-823 human gastric carcinoma cells, read-out: BGC-823 cell IC50
Protocol: (§1) Test method: The cells of log phase are cultivated in the culture plate with 96 pores, and each pore contains 100 μL of solution (including 1000-1200 tumor cells). The next day, different concentrations of the present compound are added to the treatment groups, each compound contains 4 to 5 dosage groups, and each dosage group contains at least 3 parallel pores. The solvent with an equivalent volume of the said compound is added to the control groups. The said culture plate is then placed in a 5% CO2 incubator, cultured at 37° C., and the culture solution is discharged 4 days later. Next, 200 μL of the 0.2% MTT solution (RPMI1640 preparation) is added to each pore and incubated at 37° C. for 4 hours; the obtained supernatant is discharged; and 150 μL of DMSO is added to each pore so as to dissolve formazane particles. After slightly shaking the mixture, the optical density (OD) is measured by the ELIASA in the conditions of a resulting reference wavelength 450 nm and a detection wavelength 570 nm. The tumor cells treated with solvent are used as control groups, and the inhibition rate of the drugs against the tumor cells and IC50 are calculated according to the following equation. […] The MCF-7 cells are human breast cancer cells and the BGC-823 cells are human gastric carcinoma cells.

[2] = tested on: MCF-7 cells (human breast cancer cells); experiment: MTT antiproliferative test on MCF-7 cells; assay type: cell-based; details: MCF7, 96 h, 4 days culture, MCF-7 human breast cancer cells, read-out: MCF-7 cell IC50
Protocol: as §1

Compound | melting point | IC50 [1] | IC50 [2]
CC(C)=CCC12OC(C)(C)C3CC(C=C4C(=O)c5cccc(O)c5OC431)C2=O (stereo not drawn) | 203 to 205 °C | – | –
CC(C)=CCC12OC(C)(C)C3CC(C=C4C(=O)c5cc(O)ccc5OC431)C2=O (stereo not drawn) | 158 to 159 °C | – | –
CC(C)=CCC[C@]1(C)C=Cc2c(O)c3c(c(CC=C(C)C)c2O1)O[C@]12C(=C[C@@H]4C[C@H]1C(C)(C)O[C@@]2(C/C=C(/C)C(=O)O)C4=O)C3=O [Gambogic acid, gambogic acid, reference compound] | – | 2.35 µM | 2.19 µM
CC(C)=CCc1c(O)ccc2c1OC13C(=CC4CC1C(C)(C)OC3(CC=C(C)C)C4=O)C2=O (stereo not drawn) [CPUY I-5, 3,3a,4,5-tetrahydro-3,3-dimethyl-1,11-bis(3-methyl-2-butenyl)-10-hydroxyl-1,5-dimethylene-1H,7H-furan[3,4-d]xanthene-7,13-diketone] | 158 to 160 °C | 15 µM | 5.79 µM
CC(C)=CCc1c(O)ccc2c1C(=O)C1=CC3CC4C(C)(C)OC(CC=C(C)C)(C3=O)C14O2 (stereo not drawn) [CPUY I-6, 3,3a,4,5-tetrahydro-3,3-dimethyl-1,8-bis(3-methyl-2-butenyl)-9-hydroxyl-1,5-dimethylene-1H,7H-furan[3,4-d]xanthene-7,13-diketone] | 138 to 139 °C | 21.7 µM | 11.9 µM

Now from value to compound:

melting point | IC50 [1] | IC50 [2] | Compound
148 to 150 °C | 18.2 µM | 10.9 µM | CC(C)=CCc1cc2c(cc1O)C(=O)C1=CC3C4CC1(O2)C(=O)C3(CC=C(C)C)OC4(C)C (stereo not drawn) [CPUY I-7, 1,3a,4,11a-tetrahydro-3,3-dimethyl-1,7-bis(3-methyl-2-butenyl)-8-hydroxyl-3H-1,4-a-dimethylene-10H-furan[3,4-b]xanthene-10,12-diketone]
– | 3.59 µM | 9.16 µM | CC(C)=CCC12OC(C)(C)C3CC(C=C4C(=O)c5c(O)cccc5OC431)C2=O (stereo not drawn) [CPUY I-1, 3,3a,4,5-tetrahydro-3,3-dimethyl-1-(3-methyl-2-butenyl)-8-hydroxyl-1,5-dimethylene-1H,7H-furan[3,4-d]xanthene-7,13-diketone]
197 to 199 °C | 17.6 µM | 12.4 µM | CC(C)=CCC12OC(C)(C)C3CC(C=C4C(=O)c5ccc(O)cc5OC431)C2=O (stereo not drawn) [CPUY I-2, 3,3a,4,5-tetrahydro-3,3-dimethyl-1-(3-methyl-2-butenyl)-10-hydroxyl-1,5-dimethylene-1H,7H-furan[3,4-d]xanthene-7,13-diketone]
157 to 158 °C | 11.3 µM | 9.06 µM | CC(C)=CCc1ccc2c(c1O)OC13C(=CC4CC1C(C)(C)OC3(CC=C(C)C)C4=O)C2=O (stereo not drawn) [CPUY I-8, 3,3a,4,5-tetrahydro-3,3-dimethyl-1,10-bis(3-methyl-2-butenyl)-11-hydroxyl-1,5-dimeth ylene-1H,7H-furan[3,4-d]xanthene-7,13-diketone]
